Data reported in ChEMBL document CHEMBL6083280, “De Novo Discovery of a Noncovalent Cell-Penetrating Bicyclic Peptide Inhibitor Targeting SARS-CoV-2 Main Protease” (J Med Chem, 2024).
The source made the active and inactive calls. The rule behind the calls is not given here. Positions of bridges follow the written chain, without caps; N, C: chain ends. Residues, ends and D or L forms follow the SMILES beside them.

Legend:
[1] = target: Replicase polyprotein 1ab (Severe acute respiratory syndrome coronavirus 2, UniProt P0DTD1); assay: Inhibition of N-terminal his-tagged SARS-CoV-2 Main protease expressed in Escherichia coli BL21 (DE3) using Dabcyl-TSAVLWSGFRICMK-Edans as substrate preincubated for 10 mins by microplate reader analysis
[2] = tested on: SARS-CoV-2; assay: Antiviral activity against SARS-CoV-2 infected in human Caco-2 cells assessed as inhibition of viral infection preincubated for 1 hr followed by viral infection measured after 48 hrs by CQ1 confocal quantitative image cytometer analysis; assay type: functional, organism-based; settings: for EC50: Severe acute respiratory syndrome coronavirus 2, Caco-2; for Activity: Severe acute respiratory syndrome coronavirus 2, time 49.0 hrs

SMILES	IC50 [1] [nM]	EC50 [2] [nM]	Activity [2]
CC(C)C[C@@H]1NC(=O)[C@H](Cc2ccccc2)NC(=O)[C@@H]2CCCN2C(=O)[C@H]([C@@H](C)O)NC(=O)[C@H]([C@@H](C)O)NC(=O)[C@H]([C@@H](C)O)NC(=O)[C@H](Cc2c[nH]cn2)NC(=O)[C@H](Cc2ccccc2)NC(=O)[C@H]([C@@H](C)O)NC(=O)[C@H](C(C)C)NC(=O)[C@@H](Cc2ccc(O)cc2)NC(=O)CC[C@@H](C(=O)NCC(N)=O)NC(=O)[C@@H]2CCCN2C(=O)[C@@H]2CCCN2C1=O	150	> 100000	–
CC(C)C[C@@H]1NC(=O)[C@H](Cc2ccccc2)NC(=O)[C@@H]2CCCN2C(=O)[C@H]([C@@H](C)O)NC(=O)[C@H]([C@@H](C)O)NC(=O)[C@H]([C@@H](C)O)NC(=O)[C@H](C)NC(=O)[C@H](Cc2ccccc2)NC(=O)[C@H]([C@@H](C)O)NC(=O)[C@H](C(C)C)NC(=O)[C@@H](Cc2ccc(O)cc2)NC(=O)CSC[C@@H](C(=O)NCC(N)=O)NC(=O)[C@@H]2CCCN2C(=O)[C@@H]2CCCN2C1=O	> 10000	–	–
CC[C@H](C)[C@@H]1NC(=O)[C@@H](Cc2ccc(O)cc2)NC(=O)CSC[C@@H](C(N)=O)NC(=O)[C@H](C(C)C)NC(=O)[C@H](CC(C)C)NC(=O)[C@@H]2CCCN2C(=O)[C@H](Cc2ccccc2)NC(=O)[C@H]([C@@H](C)O)NC(=O)[C@H](CCC(N)=O)NC1=O	1400	–	inactive
CC(C)C[C@@H]1NC(=O)[C@H](Cc2ccccc2)NC(=O)[C@@H]2CCCN2C(=O)[C@H]([C@@H](C)O)NC(=O)[C@H]([C@@H](C)O)NC(=O)[C@H]([C@@H](C)O)NC(=O)[C@H](Cc2c[nH]cn2)NC(=O)[C@H](Cc2ccccc2)NC(=O)[C@H]([C@@H](C)O)NC(=O)[C@H](C)NC(=O)[C@@H](Cc2ccc(O)cc2)NC(=O)CSC[C@@H](C(=O)NCC(N)=O)NC(=O)[C@@H]2CCCN2C(=O)[C@@H]2CCCN2C1=O	> 10000	–	–
CC(C)C[C@@H]1NC(=O)[C@H](C)NC(=O)[C@@H]2CCCN2C(=O)[C@H]([C@@H](C)O)NC(=O)[C@H]([C@@H](C)O)NC(=O)[C@H]([C@@H](C)O)NC(=O)[C@H](Cc2c[nH]cn2)NC(=O)[C@H](Cc2ccccc2)NC(=O)[C@H]([C@@H](C)O)NC(=O)[C@H](C(C)C)NC(=O)[C@@H](Cc2ccc(O)cc2)NC(=O)CSC[C@@H](C(=O)NCC(N)=O)NC(=O)[C@@H]2CCCN2C(=O)[C@@H]2CCCN2C1=O	5780	–	–
CC(C)C[C@@H]1NC(=O)[C@H](Cc2ccccc2)NC(=O)[C@@H]2CCCN2C(=O)[C@H]([C@@H](C)O)NC(=O)[C@H]([C@@H](C)O)NC(=O)[C@H]([C@@H](C)O)NC(=O)[C@H](Cc2c[nH]cn2)NC(=O)[C@H](C)NC(=O)[C@H]([C@@H](C)O)NC(=O)[C@H](C(C)C)NC(=O)[C@@H](Cc2ccc(O)cc2)NC(=O)CSC[C@@H](C(=O)NCC(N)=O)NC(=O)[C@@H]2CCCN2C(=O)[C@@H]2CCCN2C1=O	> 10000	–	–
CC(C)C[C@@H]1NC(=O)[C@H](Cc2ccccc2)NC(=O)[C@@H]2CCCN2C(=O)[C@H](C)NC(=O)[C@H]([C@@H](C)O)NC(=O)[C@H]([C@@H](C)O)NC(=O)[C@H](Cc2c[nH]cn2)NC(=O)[C@H](Cc2ccccc2)NC(=O)[C@H]([C@@H](C)O)NC(=O)[C@H](C(C)C)NC(=O)[C@@H](Cc2ccc(O)cc2)NC(=O)CSC[C@@H](C(=O)NCC(N)=O)NC(=O)[C@@H]2CCCN2C(=O)[C@@H]2CCCN2C1=O	220	–	–
CC(C)[C@@H]1NC(=O)[C@@H](Cc2ccc(O)cc2)NC(=O)CSC[C@@H](C(=O)NCC(N)=O)NC(=O)[C@@H]2CCCN2C(=O)[C@@H]2CCCN2C(=O)[C@H](C)NC(=O)[C@H](Cc2ccccc2)NC(=O)[C@@H]2CCCN2C(=O)[C@H]([C@@H](C)O)NC(=O)[C@H]([C@@H](C)O)NC(=O)[C@H]([C@@H](C)O)NC(=O)[C@H](Cc2c[nH]cn2)NC(=O)[C@H](Cc2ccccc2)NC(=O)[C@H]([C@@H](C)O)NC1=O	370	–	–
CC(C)C[C@@H]1NC(=O)[C@H](Cc2ccccc2)NC(=O)[C@@H]2CCCN2C(=O)[C@H]([C@@H](C)O)NC(=O)[C@H](C)NC(=O)[C@H]([C@@H](C)O)NC(=O)[C@H](Cc2c[nH]cn2)NC(=O)[C@H](Cc2ccccc2)NC(=O)[C@H]([C@@H](C)O)NC(=O)[C@H](C(C)C)NC(=O)[C@@H](Cc2ccc(O)cc2)NC(=O)CSC[C@@H](C(=O)NCC(N)=O)NC(=O)[C@@H]2CCCN2C(=O)[C@@H]2CCCN2C1=O	200	–	–
CC[C@H](C)[C@@H]1NC(=O)[C@@H](Cc2ccc(O)cc2)NC(=O)CSC[C@@H](C(N)=O)NC(=O)[C@H]([C@@H](C)CC)NC(=O)[C@@H]2CCCN2C(=O)[C@@H]2CCCN2C(=O)[C@H](Cc2ccccc2)NC(=O)[C@H](CO)NC(=O)[C@H](CCC(N)=O)NC1=O	1400	–	inactive
CC(C)[C@@H]1NC(=O)[C@@H](Cc2ccc(O)cc2)NC(=O)CC[C@@H](C(N)=O)NC(=O)[C@@H]2CCCN2C(=O)[C@@H]2CCCN2C(=O)[C@@H]2CSc3c(F)c(F)c(c(F)c3F)SC[C@H](NC1=O)C(=O)N[C@@H](Cc1ccccc1)C(=O)N[C@@H](Cc1c[nH]cn1)C(=O)N[C@@H]([C@@H](C)O)C(=O)N[C@@H]([C@@H](C)O)C(=O)N[C@@H]([C@@H](C)O)C(=O)N1CCC[C@H]1C(=O)N[C@@H](Cc1ccccc1)C(=O)N2	16600	> 100000	–
CC(C)C[C@@H]1NC(=O)[C@H](Cc2ccccc2)NC(=O)[C@@H]2CCCN2C(=O)[C@H]([C@@H](C)O)NC(=O)[C@H]([C@@H](C)O)NC(=O)[C@H]([C@@H](C)O)NC(=O)[C@H](Cc2c[nH]cn2)NC(=O)[C@H](Cc2ccccc2)NC(=O)[C@H](C)NC(=O)[C@H](C(C)C)NC(=O)[C@@H](Cc2ccc(O)cc2)NC(=O)CSC[C@@H](C(=O)NCC(N)=O)NC(=O)[C@@H]2CCCN2C(=O)[C@@H]2CCCN2C1=O	1650	–	–
CC(C)[C@@H]1NC(=O)[C@@H](Cc2ccc(O)cc2)NC(=O)CC[C@@H](C(=O)NCC(N)=O)NC(=O)[C@@H]2CCCN2C(=O)[C@@H]2CCCN2C(=O)[C@@H]2CSCc3cccc(c3)CSC[C@H](NC1=O)C(=O)N[C@@H](Cc1ccccc1)C(=O)N[C@@H](Cc1c[nH]cn1)C(=O)N[C@@H]([C@@H](C)O)C(=O)N[C@@H]([C@@H](C)O)C(=O)N[C@@H]([C@@H](C)O)C(=O)N1CCC[C@H]1C(=O)N[C@@H](Cc1ccccc1)C(=O)N2	440	> 100000	–
CC(C)C[C@@H]1NC(=O)[C@H](Cc2ccccc2)NC(=O)[C@@H]2CCCN2C(=O)[C@H]([C@@H](C)O)NC(=O)[C@H]([C@@H](C)O)NC(=O)[C@H](C)NC(=O)[C@H](Cc2c[nH]cn2)NC(=O)[C@H](Cc2ccccc2)NC(=O)[C@H]([C@@H](C)O)NC(=O)[C@H](C(C)C)NC(=O)[C@@H](Cc2ccc(O)cc2)NC(=O)CSC[C@@H](C(=O)NCC(N)=O)NC(=O)[C@@H]2CCCN2C(=O)[C@@H]2CCCN2C1=O	510	–	–
CC(C)C[C@@H]1NC(=O)[C@H](Cc2ccccc2)NC(=O)[C@@H]2CCCN2C(=O)[C@H]([C@@H](C)O)NC(=O)[C@H]([C@@H](C)O)NC(=O)[C@H]([C@@H](C)O)NC(=O)[C@H](Cc2c[nH]cn2)NC(=O)[C@H](Cc2cccc(F)c2)NC(=O)[C@H]([C@@H](C)O)NC(=O)[C@H](C(C)C)NC(=O)[C@@H](Cc2ccc(O)cc2)NC(=O)CSC[C@@H](C(=O)NCC(N)=O)NC(=O)[C@@H]2CCCN2C(=O)[C@@H]2CCCN2C1=O	250	> 100000	–
CC[C@H](C)[C@@H]1NC(=O)[C@@H](Cc2ccc(O)cc2)NC(=O)CSC[C@@H](C(N)=O)NC(=O)[C@H](C(C)C)NC(=O)[C@H](CC(C)C)NC(=O)[C@@H]2CCCN2C(=O)[C@H](Cc2ccccc2)NC(=O)[C@H]([C@@H](C)O)NC(=O)[C@H](Cc2c[nH]cn2)NC1=O	1400	–	inactive
CC[C@H](C)[C@@H]1NC(=O)[C@H](Cc2c[nH]cn2)NC(=O)[C@H](CO)NC(=O)[C@H](Cc2ccccc2)NC(=O)[C@H](Cc2ccc(O)cc2)NC(=O)[C@H](CCC(N)=O)NC(=O)[C@H]([C@@H](C)O)NC(=O)[C@H](Cc2ccc(O)cc2)NC(=O)CSC[C@@H](C(=O)N[C@@H](CO)C(=O)N[C@@H](CO)C(=O)N[C@@H](CCCNC(=N)N)C(=O)N[C@@H](CO)C(=O)NCC(N)=O)NC1=O ({CH2CO}-YTQYFSHICSSRSG-NH2; thioether N-9)	> 100000	–	–
CC(C)C[C@@H]1NC(=O)[C@H](Cc2ccccc2)NC(=O)[C@H](C)NC(=O)[C@H]([C@@H](C)O)NC(=O)[C@H]([C@@H](C)O)NC(=O)[C@H]([C@@H](C)O)NC(=O)[C@H](Cc2c[nH]cn2)NC(=O)[C@H](Cc2ccccc2)NC(=O)[C@H]([C@@H](C)O)NC(=O)[C@H](C(C)C)NC(=O)[C@@H](Cc2ccc(O)cc2)NC(=O)CSC[C@@H](C(=O)NCC(N)=O)NC(=O)[C@@H]2CCCN2C(=O)[C@@H]2CCCN2C1=O	390	–	–
CC(C)C[C@@H]1NC(=O)[C@H](Cc2ccccc2)NC(=O)[C@@H]2CCCN2C(=O)[C@H]([C@@H](C)O)NC(=O)[C@H]([C@@H](C)O)NC(=O)[C@H]([C@@H](C)O)NC(=O)[C@H](Cc2c[nH]cn2)NC(=O)[C@H](Cc2ccccc2)NC(=O)[C@H]([C@@H](C)O)NC(=O)[C@H](C(C)C)NC(=O)[C@@H](Cc2ccc(O)cc2)NC(=O)CSC[C@@H](C(=O)NCC(N)=O)NC(=O)[C@H](C)NC(=O)[C@@H]2CCCN2C1=O	1930	–	–
CC(C)C[C@@H]1NC(=O)[C@H](Cc2ccccc2)NC(=O)[C@@H]2CCCN2C(=O)[C@H]([C@@H](C)O)NC(=O)[C@H]([C@@H](C)O)NC(=O)[C@H]([C@@H](C)O)NC(=O)[C@H](Cc2c[nH]cn2)NC(=O)[C@H](Cc2ccccc2)NC(=O)[C@H]([C@@H](C)O)NC(=O)[C@H](C(C)C)NC(=O)[C@@H](Cc2ccc(O)cc2)NC(=O)CSC[C@@H](C(=O)NCC(N)=O)NC(=O)[C@@H]2CCCN2C(=O)[C@H](C)NC1=O	610	–	–
